From patent US20120157401A1, “METHODS FOR TREATING NEUROFIBROMATOSIS” (PTC Therapeutics, Inc., priority 2009, published 2012)

System: hypoxia-inducible endogenous VEGF expression
Test: Hypoxia-inducible endogenous VEGF expression ELISA in HeLa cells, dose-response EC50 (Table 3)
Type: cell-based, human
Details: HeLa cells, hypoxic conditions (1% O2), 24-48 hours, VEGF in conditioned media; read-out: ELISA EC50
Procedure, shortened: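 HeLa cells kept 24-48 h under hypoxia (1% O2, 5% CO2, nitrogen balance) with or without compound, e.g. seven concentrations; secreted VEGF in conditioned medium quantified by ELISA against a standard curve. Parallel Cell Titer Glo viability under identical conditions excludes cytotoxicity.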

Row | SMILES | EC50 [µM]
1 | CC(C)c1ccc(C2c3[nH]c4ccc(Br)cc4c3CCN2C(=O)Oc2ccc(Cl)cc2)cc1 (stereo not shown) [Compound 572] | < 0.008

Same assay, conditions: Homo sapiens, HeLa, read-out: ELISA EC50 μM

Row | SMILES | EC50 [µM]
2 | CN(C)CCCOc1ccc(C2c3[nH]c4ccc(Cl)cc4c3CCN2C(=O)Oc2ccc(Br)cc2)cc1 (stereo not shown) [Compound 468] | 0.008 to 0.04
3 | O=C(Oc1ccc(Cl)cc1)N1CCc2c([nH]c3ccc(Cl)cc23)C1c1ccc(OCCCN2CCCCC2)cc1 (stereo not shown) [Compound 433] | < 0.008
4 | O=C(Oc1ccc(Cl)cc1)N1CCc2c([nH]c3ccc(Cl)cc23)C1c1ccc(OCCCCN2CCOCC2)cc1 (stereo not shown) [Compound 702] | 0.008 to 0.04
5 | O=C(Oc1ccc(F)cc1)N1CCc2c([nH]c3ccc(Cl)cc23)C1c1ccc(OCC(O)CN2CCSCC2)cc1 (stereo not shown) [Compound 925] | < 0.008
6 | O=C(Oc1ccc(Cl)cc1)N1CCc2c([nH]c3ccc(Cl)cc23)C1c1ccc(OCC(O)CN2CCCC2)cc1 (stereo not shown) [Compound 462] | 0.008 to 0.04
7 | COCCCNCCCCCCOc1ccc(C2c3[nH]c4ccc(Cl)cc4c3CCN2C(=O)Oc2ccc(Cl)cc2)cc1 (stereo not shown) [Compound 785] | < 0.008
8 | CCN(CC)CC(O)COc1ccc(C2c3[nH]c4ccc(Cl)cc4c3CCN2C(=O)Oc2ccc(Cl)cc2)cc1 (stereo not shown) [Compound 938] | < 0.008
9 | CN(C)CCCOc1ccc(C2c3[nH]c4ccc(Cl)cc4c3CCN2C(=O)Oc2ccc(Cl)cc2)cc1 (stereo not shown) [Compound 479] | 0.04 to 0.2
10 | O=C(Oc1ccc(Cl)cc1)N1CCc2c([nH]c3ccc(Cl)cc23)[C@@H]1c1ccc(OC[C@@H](O)CN2CCOCC2)cc1 [Compound 1071] | < 0.008
11 | O=C(Oc1ccc(F)cc1)N1CCc2c([nH]c3ccc(Cl)cc23)C1c1ccc(OCCCCCCN2CCOCC2)cc1 (stereo not shown) [Compound 776] | < 0.008
12 | CNCC(O)COc1ccc(C2c3[nH]c4ccc(Cl)cc4c3CCN2C(=O)Oc2ccc(Cl)cc2)cc1 (stereo not shown) [Compound 850] | 0.04 to 0.2
13 | O=C(Oc1ccc(Cl)cc1)N1CCc2c([nH]c3ccc(Cl)cc23)C1c1ccc(OCCCCCCNCCCn2ccnc2)cc1 (stereo not shown) [Compound 789] | 0.04 to 0.2
14 | COc1ccc(OC(=O)N2CCc3c([nH]c4ccc(Cl)cc34)C2c2ccc(OCC(=O)N3CCN(CCCN(C)C)CC3)cc2)cc1 (stereo not shown) [Compound 1029] | > 1
15 | COCCN(C)CCCOc1ccc(C2c3[nH]c4ccc(Cl)cc4c3CCN2C(=O)Oc2ccc(Cl)cc2)cc1 (stereo not shown) [Compound 908] | < 0.008
16 | COCCCNCCCCOc1ccc(C2c3[nH]c4ccc(Cl)cc4c3CCN2C(=O)Oc2ccc(Cl)cc2)cc1 (stereo not shown) [Compound 701] | 0.008 to 0.04
17 | O=C(Oc1ccc(Cl)cc1)N1CCc2c([nH]c3ccc(Cl)cc23)C1c1ccc(OCCCCCCNCCO)cc1 (stereo not shown) [Compound 782] | < 0.008
18 | CN1CCCC(COc2ccc(C3c4[nH]c5ccc(Cl)cc5c4CCN3C(=O)Oc3ccccc3Cl)cc2)C1 (stereo not shown) [Compound 976] | 0.04 to 0.2

Same assay, conditions: Homo sapiens; HeLa cells, hypoxic conditions (1% O2), 24-48 hours, VEGF in conditioned media; read-out: ELISA EC50

Row | SMILES | EC50 [µM]
19 | CC(CO)(CO)COc1ccc([C@H]2c3[nH]c4ccc(Cl)cc4c3CCN2C(=O)Oc2ccc(Cl)cc2)cc1 [Compound 1230] | < 0.008
20 | O=C(Oc1ccc(Cl)cc1)N1CCc2c([nH]c3ccc(Cl)cc23)C1c1ccc(OCCCCn2ccnc2)cc1 (stereo not shown) [Compound 705] | 0.008 to 0.04
21 | COc1ccc(C2c3[nH]c4ccc(Cl)cc4c3CCN2C(=O)Oc2ccccc2)cc1 (stereo not shown) [Compound 60] | 0.008 to 0.04
22 | C=CCOc1ccc(C2c3[nH]c4ccc(Cl)cc4c3CCN2C(=O)Oc2ccc(F)cc2)cc1 (stereo not shown) [Compound 409] | < 0.008
23 | COC(=O)c1ccc(C2c3[nH]c4ccc(Br)cc4c3CCN2C(=O)Oc2ccccc2Cl)cc1 (stereo not shown) [Compound 593] | 0.008 to 0.04
24 | O=C(Oc1ccc(Cl)cc1)N1CCc2c([nH]c3ccc(Cl)cc23)C1c1ccc(OC(CO)CO)cc1 (stereo not shown) [Compound 1231] | 0.008 to 0.04
25 | O=C(Oc1ccc(F)cc1)N1CCc2c([nH]c3ccc(Cl)cc23)C1c1ccc(O)cc1 (stereo not shown) [Compound 575] | 0.2 to 1
26 | O=C(Oc1ccccc1Cl)N1CCc2c([nH]c3ccc(Cl)cc23)C1c1ccc(Cl)cc1 (stereo not shown) [Compound 589] | 0.04 to 0.2
27 | O=C(Oc1ccc(Cl)cc1)N1CCc2c([nH]c3ccc(Cl)cc23)[C@@H]1c1ccc(OCC2(CO)COCOC2)cc1 [Compound 1263] | < 0.008
28 | O=C(Oc1ccc(F)cc1)N1CCc2c([nH]c3ccc(Cl)cc23)C1c1ccc(OCC(O)Cn2nccn2)cc1 (stereo not shown) [Compound 1067] | 0.008 to 0.04
29 | COc1ccc(OC(=O)N2CCc3c([nH]c4ccc(Cl)cc34)C2c2ccc(S(=O)(=O)N3CCOCC3)cc2)cc1 (stereo not shown) [Compound 455] | 0.008 to 0.04
30 | O=C(Oc1ccc(Cl)cc1)N1CCc2c([nH]c3ccc(Cl)cc23)C1c1ccc(OCC(O)Cn2cncn2)cc1 (stereo not shown) [Compound 996] | < 0.008
31 | COc1ccc(OC(=O)N2CCc3c([nH]c4ccc(Cl)cc34)C2c2ccc(S(C)(=O)=O)cc2)cc1 (stereo not shown) [Compound 359] | 0.04 to 0.2
32 | CC1(COc2ccc([C@H]3c4[nH]c5ccc(Cl)cc5c4CCN3C(=O)Oc3ccc(Cl)cc3)cc2)COC(C)(C)OC1 [Compound 1229] | < 0.008
33 | COCCOCCOc1ccc(C2c3[nH]c4ccc(Cl)cc4c3CCN2C(=O)Oc2ccccc2Cl)cc1 (stereo not shown) [Compound 674] | 0.008 to 0.04
34 | O=C(Oc1ccccc1Cl)N1CCc2c([nH]c3ccc(Cl)cc23)C1c1ccc(OCC2OCCO2)cc1 (stereo not shown) [Compound 1052] | 0.008 to 0.04
35 | O=C(Oc1ccc(Cl)cc1)N1CCc2c([nH]c3ccc(Cl)cc23)C1c1ccc(S(=O)(=O)N2CCOCC2)cc1 (stereo not shown) [Compound 346] | 0.008 to 0.04
36 | COCCOCCOc1ccc(C2c3[nH]c4ccc(Cl)cc4c3CCN2C(=O)Oc2ccc([N+](=O)[O-])cc2)cc1 (stereo not shown) [Compound 681] | 0.008 to 0.04
37 | Cc1ccc(OC(=O)N2CCc3c([nH]c4ccc(Cl)cc34)C2c2ccc(OCC(O)CO)cc2)cc1 (stereo not shown) [Compound 631] | < 0.008
38 | CC(=O)NCC(CCOc1ccc([C@H]2c3[nH]c4ccc(Cl)cc4c3CCN2C(=O)Oc2ccc(Cl)cc2)cc1)OC(C)=O (stereo partly shown) [Compound 1277] | < 0.008
39 | O=C(Oc1ccc(Br)cc1)N1CCc2c([nH]c3ccc(Cl)cc23)C1c1ccc(OCC2OCCO2)cc1 (stereo not shown) [Compound 1054] | < 0.008
40 | COc1cc(C2c3[nH]c4ccc(Cl)cc4c3CCN2C(=O)Oc2ccc(Cl)cc2)ccc1OCCCn1cncn1 (stereo not shown) [Compound 1087] | 0.008 to 0.04
41 | COc1ccc(OC(=O)N2CCc3c([nH]c4ccc(Cl)cc34)C2c2ccc(OCC[C@H]3COC(C)(C)O3)cc2)cc1 (stereo partly shown) [Compound 1171] | < 0.008
42 | O=C(Oc1ccc(Cl)cc1)N1CCc2c([nH]c3ccc(Cl)cc23)C1c1ccc(OCCCCCCn2cncn2)cc1 (stereo not shown) [Compound 791] | < 0.008

Same assay, conditions: Homo sapiens; HeLa cells, hypoxic conditions (1% O2), VEGF ELISA of conditioned media; read-out: ELISA EC50

Row | SMILES | EC50 [µM]
43 | CC(C)S(=O)(=O)NCC(O)COc1ccc(C2c3[nH]c4ccc(Cl)cc4c3CCN2C(=O)Oc2ccc(F)cc2)cc1 (stereo not shown) [Compound 1557] | 0.2 to 1
44 | O=C(Oc1ccc(F)cc1)N1CCc2c([nH]c3ccc(Cl)cc23)[C@@H]1c1ccc(OC2CCOCC2)cc1 [Compound 1604] | < 0.008
45 | Cc1cc(N)nn1CCOc1ccc(C2c3[nH]c4ccc(Cl)cc4c3CCN2C(=O)Oc2ccc(F)cc2)cc1 (stereo not shown) [Compound 1414] | < 0.008
46 | CCC(CO)(CO)COc1ccc(C2c3[nH]c4ccc(Br)cc4c3CCN2C(=O)Oc2ccc(F)cc2)cc1 (stereo not shown) [Compound 1357] | < 0.008
47 | N#CCOc1ccc([C@H]2c3[nH]c4ccc(Cl)cc4c3CCN2C(=O)Oc2ccc(Cl)cc2)cc1 [Compound 1669] | < 0.008
48 | O=C(Oc1ccc(Cl)cc1)N1CCc2c([nH]c3ccc(Cl)cc23)[C@@H]1c1ccc(Oc2ccc(Cl)nn2)cc1 [Compound 1698] | < 0.008
49 | NC(=O)c1cn(CCOc2ccc(C3c4[nH]c5ccc(Cl)cc5c4CCN3C(=O)Oc3ccc(Cl)cc3)cc2)nc1N (stereo not shown) [Compound 1422] | 0.008 to 0.04
